The results in this text go back to patent US5874457A, “Imidazolylalkyl derivatives of imidazo[1,5-a]indol-3-one” (Pharmacia & Upjohn S.p.A., priority 1994, dated 1999).

Test [1] addresses T1, 5-HT3 (Rattus norvegicus, UniProt P35563).
T1 sequence (P35563 24-483): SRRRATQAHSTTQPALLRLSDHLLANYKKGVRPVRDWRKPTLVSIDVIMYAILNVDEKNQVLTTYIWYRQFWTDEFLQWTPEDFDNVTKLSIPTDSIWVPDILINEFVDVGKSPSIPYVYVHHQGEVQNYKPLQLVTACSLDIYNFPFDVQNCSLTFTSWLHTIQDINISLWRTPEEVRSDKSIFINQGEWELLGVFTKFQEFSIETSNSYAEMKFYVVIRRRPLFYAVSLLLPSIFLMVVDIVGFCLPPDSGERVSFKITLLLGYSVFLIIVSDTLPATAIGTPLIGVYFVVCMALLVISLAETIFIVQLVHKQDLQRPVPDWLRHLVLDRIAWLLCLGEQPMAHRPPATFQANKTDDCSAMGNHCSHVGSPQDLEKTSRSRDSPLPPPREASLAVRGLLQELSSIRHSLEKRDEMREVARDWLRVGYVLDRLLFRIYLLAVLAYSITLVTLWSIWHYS
Nature of the test: Inhibition of the binding of ^3 H-BRL 43694 (5-HT3 binding affinity, rat entorhinal cortex). Details: from tissue; host or cells: rat entorhinal cortex (brain cortical membranes). An excerpt:
The following Table II summarized the data obtained in this in-vitro test for the representative compound of the invention coded as FCE 28572.
5-HT3 binding affinity for rat entorhinal

Test [2] addresses T1, 5-HT3. In words: Inhibition of the von Bezold-Jarisch chemoreflex evoked by 5-HT in the anesthetized rat (5HT3 antagonist activity in vivo). The arrangement: evoked by 5-HT in the anesthetized rat; from tissue; host or cells: living anesthetized rat (in vivo; native receptors, by own knowledge on cardiac vagal afferents). The note with it: 5-HT 30 μg/kg i.v. As for the experimental part: Pharmacol. 326, 36-44 (1984).
The following Table I reports in-vivo 5HT3 antagonist activity data obtained in this test for the representative compound of the invention 2-(5-methyl-1H-imidazol-4-yl)methyl-1,2-dihydro-imidazo[1,5-a]indol-3-one (internal code […]).
elicited by 5-HT (30 μg/kg i.v.) by FCE 28572
in the anesthetized rat. Values are mean ± in […]

Regarding `Cc1[nH]cnc1CN1Cc2cc3ccccc3n2C1=O` [FCE 28572, 2-(5-methyl-1H-imidazol-4-yl)methyl-1,2-dihydro-imidazo[1,5-a]indol-3-one], the IC50 in test [1] was determined as 23 nM. For the same compound, the “% inhibition of the von Bezold-Jarisch reflex elicited by 5-HT” value in test [2] (compound 100 μg/kg i.v., mean ± S.E.M. from 6 animals) is recorded as 86.7%. In addition, in test [2] (iv, limits (10.4-31.7), read-out: ED50 (limits), inhibition of the von Bezold-Jarisch reflex elicited by 5-HT), the ED50 was determined as 0.0161 mg/kg.

Usually IC50 stands for the concentration that gives 50% inhibition. A low value points to inhibition by little substance. By ED50 is commonly meant the dose that gives a 50% effect, or the effect in half of the subjects.
